Earlier results on seven compounds are cited in US5891469A, “Solid Coprecipitates for enhanced bioavailability of lipophilic substances” (Pharmos Corporation, priority 1997, dated 1999).

For series [1] the following is noted: for solubility in aqueous solutions: cannabinoids, depending upon the conditions (Garret and Hunt 1974).
The conditions of series [2]: like other lipophilic drugs.

As for `COC1=C(OC)C(=O)C(C/C=C(\C)CC/C=C(\C)CC/C=C(\C)CC/C=C(\C)CC/C=C(\C)CC/C=C(\C)CC/C=C(\C)CC/C=C(\C)CC/C=C(\C)CCC=C(C)C)=C(C)C1=O` [Coenzyme Q10, 2,3-dimethoxy-5-methyl-6-decaprenyl-1,4-benzoquinone], in series [1] (due to long side chain of 10 isoprenoid units), the “solubility in water (in words)” value is “practically insoluble in water”. `CCCCCCC(C)(C)c1cc(O)c2c(c1)OC(C)(C)[C@H]1CC=C(CO)C[C@H]21` [Dexanabinol, (+)-(3S, 4S)-7-hydroxy-Δ^6-tetra hydrocannabinol-1,1-dimetylheptyl]: the oral bioavailability result in series [2] is reported as “poor oral bioavailability”. Besides, the solubility in water result in series [1] (practically insoluble in water) is on record as “less than 50 μg/ml”.

For `C=C(C)[C@@H]1CCC(C)=C[C@H]1c1c(O)cc(CCCCC)cc1O` [cannabidiol], in series [1], the “solubility in aqueous solutions” value is “a few micrograms/ml or less”. On to `CCCCCc1cc(O)c2c(c1)OC(C)(C)c1ccc(C)cc1-2` [cannabinol], for which the “solubility in aqueous solutions” value in series [1] is “a few micrograms/ml or less”.

`CCCCCc1cc(O)c2c(c1)OC(C)(C)[C@@H]1CCC(C)=C[C@@H]21` [tetrahydrocannabinol (THC), tetrahydrocannabinol]: the maximal plasma levels entry (oral dosing of 20 mg THC in a sesame oil formulation (Wall et al. 1983)) was “around 10 ng/ml”. Also, the “human bioavailability following oral ingestion, mean estimates” value (oral, depending on the vehicle used) is 6 to 12%.

For the compound `CCCCCc1cc(O)c2c(c1)OC(C)(C)[C@@H]1CCC(C)=C[C@@H]21` [Δ^1 -tetrahydrocannabinol (Δ^1 -THC), Δ^1 -tetrahydrocannabinol], the “solubility in aqueous solutions” value in series [1] was “a few micrograms/ml or less”.

Turning to `CCCCCc1cc(O)c2c(c1)OC(C)(C)[C@@H]1CC=C(C)C[C@@H]21` [Δ^6 -tetrahydrocannabinol (Δ^6 -THC), Δ^6 -tetrahydrocannabinol], the “solubility in aqueous solutions” value in series [1] is reported as “a few micrograms/ml or less”.
